In patent US20210228523A1, “MODULATORS OF SESTRIN-GATOR2 INTERACTION AND USES THEREOF” (Navitor Pharmaceuticals, Inc., priority 2017, published 2021):

biological target: T1, GATOR2/Sestrin2 complexes (Homo sapiens, UniProt P58004); test: In vitro PPI assay (Method 1; Western blot assay): Sestrin2 bound to GATOR2 after compound addition to immunoprecipitated FLAG-WDR24 complex; assay type: binding; details: 25 μM, % activity relative to leucine (25 μM = 100%)
T1 construct: endogenous in cells; host or cells: HEK293T cells stably expressing FLAG-WDR24 (lentiviral, pLJM60)
T1 sequence (P58004 1-480): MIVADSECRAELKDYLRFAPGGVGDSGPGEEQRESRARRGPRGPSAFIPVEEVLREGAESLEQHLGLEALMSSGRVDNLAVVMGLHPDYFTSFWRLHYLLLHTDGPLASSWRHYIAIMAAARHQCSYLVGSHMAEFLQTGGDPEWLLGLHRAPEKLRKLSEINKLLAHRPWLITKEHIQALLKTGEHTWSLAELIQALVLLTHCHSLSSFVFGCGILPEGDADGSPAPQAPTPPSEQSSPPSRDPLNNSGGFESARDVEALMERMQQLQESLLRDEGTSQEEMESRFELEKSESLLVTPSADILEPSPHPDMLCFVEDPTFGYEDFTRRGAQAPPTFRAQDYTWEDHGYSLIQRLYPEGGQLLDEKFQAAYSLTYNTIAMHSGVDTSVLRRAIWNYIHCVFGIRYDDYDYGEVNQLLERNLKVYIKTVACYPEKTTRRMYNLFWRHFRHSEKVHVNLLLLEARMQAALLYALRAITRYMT
Excerpt: This screening assay measured test compound activity in vitro on GATOR2/Sestrin2 complexes purified via immunoprecipitation of stably expressed FLAG-WDR24 from HEK293T cells. HEK293T cells (293 Ts) were engineered to stably express N-terminally tagged FLAG-WDR24 via transduction by lentivirus. Lentiviruses were produced by co-transfection of the lentiviral transfer vector pLJM60 with the […] into HEK-293T cells using the XTremeGene 9 transfection reagent (Roche Diagnostics). The media was changed 24 hours post-transfection to Dulbecco's Modified Eagle's media (DMEM) supplemented with 30% Inactivated Fetal Serum. The virus-containing supernatants were collected 48 and 72 hours after transfection and passed through a 0.45 μm filter to eliminate cells. Target cells in 6-well tissue culture plates were infected in media containing 8 μg/mL polybrene and spin infections were performed by centrifugation at 2,200 rpm for 1 hour. Twenty-four hours after infection, the virus was removed and the cells selected with the appropriate antibiotic. Cells were then grown in DMEM supplemented with 10% fetal bovine serum and antibiotics.
Seventy-two hours later, cells were placed in standard RPMI media formulated with no amino acids and supplemented with 5 mM Glucose (−AA RPMI, US Biological Life Sciences) for 1 hour then subsequently lysed in lysis buffer (40 mM HEPES, 1% Triton, 10 mM sodium β-glycerophosphate, 10 mM sodium pyrophosphate, 2.5 mM MgCl2 and protease inhibitors). To isolate the FLAG-WDR24/endogenous-Sestrin2 complex, crude lysate (equivalent to 2-4 mg of total protein) in a volume of 1 ml was subjected to immunoprecipitation with 30 μl of anti-flag resin (SIGMA) for 2 hours at 4° C., washed twice in cold lysis buffer plus 0.5M NaCl and resuspended in 1 ml of cold cytosolic buffer (40 mM HEPES pH 7.4, 140 mM KCl, 10 mM NaCl, 2.5 mM MgCl2, 0.1% TritonX-100). […] After the incubation period, samples were centrifuged to pellet the FLAG-WDR24/endogenous-Sestrin2 complex bound to the anti-flag resin, the supernatant was completely removed and resin was resuspended in SDS-PAGE sample buffer and boiled for 5 minutes. Samples were then processed by SDS-PAGE and western blots were performed with anti-FLAG (SIGMA) and anti-Sestrin2 (Cell Signaling Technology) antibodies as described in L. Chantranupong, et al., Cell Reports 9:1-8 (2014).
The resulting western blots were scanned and band intensities corresponding to Sestrin2 and FLAG-WDR24 were quantified using the LI-COR® imaging platform. To determine the amount of Sestrin2 bound to GATOR2 for each condition, the band intensity for Sestrin2 was normalized to the band intensity of FLAG-WDR24. […]
72 hours later, cells were placed in standard RPMI media formulated with no amino acids and supplemented with 5 mM Glucose (−AA RPMI, USBiological Life Sciences) for 1 hour then subsequently lysed in lysis buffer (40 mM HEPES, 1% Triton, 10 mM Sodium Beta-Glycerophosphate, 10 mM Sodium Pyrophosphate, 2.5 mM MgCl2 and protease inhibitors). The Flag-WDR24/endogenous-Sestrin2 complex was isolated as follows: crude lysate (equivalent to 2-4 mg of total protein) in a volume of 1 ml was subjected to immunoprecipitation (IP) with 30 μl of anti-flag resin (SIGMA) for 2 hours at 4° C., washed twice in cold lysis buffer plus 0.5M NaCl and resuspended in 1 ml of cold cytosolic buffer (40 mM HEPES pH 7.4, 140 mM KCl, 10 mM NaCl, 2.5 mM MgCl2, 0.1% TritonX-100). Compounds were then added to each sample at a given concentration of 25 μM and incubated with rotation at 4° C. for 30 minutes. After the incubation period, samples were centrifuged to pellet the Flag-WDR24/endogenous-Sestrin2 complex bound to the anti-flag resin, the supernatant was completely removed and resin was resuspended in sodium dodecyl sulfate-polyacrylamide gel electrophoresis (SDS-PAGE) sample buffer and boiled for 5 minutes. […]

SMILES	Activity of Leucine: % Activity
CC(C[C@H](N)C(=O)O)C(F)(F)F (stereo in doubt) [Compound I-145, (2S,4R)-2-amino-5,5,5-trifluoro-4-methylpentanoic Acid]	A (a % activity relative to leucine of ≥40%)
CC(C[C@@H](N)C(=O)O)C(F)(F)F (stereo in doubt) [Compound I-146, (2R,4S)-2-amino-5,5,5-trifluoro-4-methylpentanoic Acid]	A (a % activity relative to leucine of ≥40%)
CC(C)C[C@@H](C(=O)O)N(C)C [Compound I-1, (S)-2-(dimethylamino)-4-methylpentanoic Acid]	B (a % activity relative to leucine of ≤−40%)
Cl.N[C@@H](CCCCC(F)(F)F)C(=O)O [Compound I-2, (S)-2-amino-7,7,7-trifluoroheptanoic Acid Hydrochloride]	B (a % activity relative to leucine of ≤−40%)
Cl.N[C@H](CCCCC(F)(F)F)C(=O)O [Compound I-3, (R)-2-amino-7,7,7-trifluoroheptanoic Acid Hydrochloride]	B (a % activity relative to leucine of ≤−40%)
N[C@@H](CC(F)(F)F)C(=O)O [Compound I-4, (S)-2-amino-4,4,4-trifluorobutanoic Acid]	C (a % activity relative to leucine of between -40 and 40%)
N[C@H](CC(F)(F)F)C(=O)O [Compound I-5, (R)-2-amino-4,4,4-trifluorobutanoic Acid]	B (a % activity relative to leucine of ≤−40%)
N[C@@H](CCC(F)(F)F)C(=O)O [Compound I-6, (S)-2-amino-5,5,5-trifluoropentanoic Acid]	C (a % activity relative to leucine of between -40 and 40%)
N[C@H](CCC(F)(F)F)C(=O)O [Compound I-7, (R)-2-amino-5,5,5-trifluoropentanoic Acid]	B (a % activity relative to leucine of ≤−40%)
N[C@@H](CCCC(F)(F)F)C(=O)O [Compound I-8, (S)-2-amino-6,6,6-trifluorohexanoic Acid]	B (a % activity relative to leucine of ≤−40%)
N[C@H](CCCC(F)(F)F)C(=O)O [Compound I-9, (R)-2-amino-6,6,6-trifluorohexanoic Acid]	C (a % activity relative to leucine of between -40 and 40%)
CC(C)C[C@@H](N)B1OC(C)(C)C(C)(C)O1 [Compound I-10]	C (a % activity relative to leucine of between -40 and 40%)
CC(C)C[C@H](NCc1ccccc1)C(=O)O [Compound I-11, (S)-2-(benzylamino)-4-methylpentanoic Acid]	C (a % activity relative to leucine of between -40 and 40%)
CC(C)C[C@H](NC(=O)Cc1ccccc1)C(=O)O [Compound I-12, (S)-4-methyl-2-(2-phenylacetamido)pentanoic Acid]	C (a % activity relative to leucine of between -40 and 40%)
CC(C)C[C@H](NC(C)C)C(=O)O [Compound I-13, (S)-2-(isopropylamino)-4-methylpentanoic Acid]	C (a % activity relative to leucine of between -40 and 40%)
CC(C)CN[C@@H](CC(C)C)C(=O)O [Compound I-14, (S)-2-(isobutylamino)-4-methylpentanoic Acid]	B (a % activity relative to leucine of ≤−40%)
CC(C)C[C@H](NC(=O)c1ccccc1)C(=O)O [Compound I-15, (S)-2-benzamido-4-methylpentanoic Acid]	C (a % activity relative to leucine of between -40 and 40%)
CC(C)C[C@H](NC(=O)C(C)C)C(=O)O [Compound I-16, (S)-2-isobutyramido-4-methylpentanoic Acid]	C (a % activity relative to leucine of between -40 and 40%)
